Measured values as given in US12156912B2, “Methods and compositions for inhibiting diseases of the central nervous system” (Board of Regents of the University of Nebraska, priority 2012, dated 2024).
Square brackets hold non-standard residues; d marks the D form. Ends that are not written are not given here. Tyr(3-NO2) = N[C@@H](Cc1ccc(O)c([N+](=O)[O-])c1)C(=O)O

Tested on: splenocytes of mice immunized with N-4YSyn
Assay: 3H-thymidine in vitro proliferation assay of splenocytes stimulated with antigen or test peptide
Assay type: cell-based, mice (C57BL/6J)
Settings: splenocytes from N-4YSyn/CFA immunized mice; 30 μg/ml antigen or peptide, 5 days; vs media control; no response in PBS immunized mice
Description: B6 (H-2^b) mice were immunized with PBS or 50 μg of N-4YSyn (nitrated C-terminal 40 amino acid α-Syn fragment) in complete Freund's adjuvant (CFA) administered subcutaneously (s.c.). Seven days after primary immunization, mice were boosted with another 50 μg of antigen emulsified in IFA (Sigma-Aldrich). Seven days following their final immunizations, donor mice were sacrificed and single cell suspensions were prepared from the spleen.
Samples of pooled splenocytes were tested for their proliferative capacity by ^3H-thymidine incorporation after stimulation with either immunizing antigen or test peptide. Splenocytes were plated at a density of 2×10^6 cells/ml complete RPMI tissue culture media (RPMI 1640 supplemented with 10% fetal bovine serum (FBS), 2 mM L-glutamine, 10 mM HEPES, 1 mM sodium pyruvate, 1× nonessential aa, 55 μM 2-mercaptoethanol, 100 U/ml penicillin, and 100 μg/ml streptomycin (Mediatech Inc., Herndon, VA)). Splenocytes from PBS or N-4YSyn immunized mice were stimulated with 0 or 30 μg/ml of immunizing antigen N-4YSyn or 30 μg/ml of the non-nitrated or nitrated peptide indicated, and cultured at 37° C. for 5 days. Cells were pulsed with […] ^3H-thymidine/well for the final 18 hours of culture, harvested onto glass fiber plates, and counted by β-scintillation spectrometry (TopCount, Packard-PerkinElmer Instruments, Wellesley, MA).
To test immune responses to particular epitopes within N-α-Syn, mice were immunized with N-4YSyn or PBS emulsified in complete Freund's adjuvant (CFA). Seven days following the initial immunization, mice were boosted with their respective immunogens emulsified in incomplete Freund's adjuvant (IFA). Seven days later, mice were sacrificed and splencoytes were tested for antigen-specific T cell proliferative responses to N-4YSyn or peptide epitope (nitrated or non-nitrated; Table 1).

Sequence	proliferative response (3H-thymidine incorporation)
GILEDMPVDPGSEAY (GILEDMPVDPGSEA[Tyr(3-NO2)]; listed as Mus musculus) [Peptide 23, murine α-synuclein positions 111-125, nitrated tyrosine]	significant proliferative response
MPVDPGSEAYEMPSE (MPVDPGSEA[Tyr(3-NO2)]EMPSE; listed as Mus musculus) [Peptide 24, murine α-synuclein positions 116-130, nitrated tyrosine]	significant proliferative response
GYPQEGILEDMPVDP (G[Tyr(3-NO2)]PQEGILEDMPVDP; listed as Mus musculus) [Peptide 22, murine α-synuclein positions 106-120, nitrated tyrosine]	significant proliferative response
GSEAYEMPSEEGYQD (GSEA[Tyr(3-NO2)]EMPSEEG[Tyr(3-NO2)]QD; listed as Mus musculus) [Peptide 25, murine α-synuclein positions 121-135, nitrated tyrosines]	significant proliferative response
